The values below come from patent publication EP3720857B1, “2-OXO-5H-CHROMENO[4,3-B]PYRIDINES FOR USE IN THE TREATMENT OF HEPATITIS B” (Galapagos NV, priority 2017, dated 2019).

Test [1] deals with hepatitis virus B (HBV) infection. Nature of the test: HepG2 NTCP assay (HBcAg staining as marker of HBV infection). The format is cell-based. The following applies: HepG2-NTCP cells infected with HBV, HBV core antigen (HBcAg) as marker of infection. A digest of the protocol: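 HepG2-NTCP cells were infected with HBV (4% PEG, 1% DMSO) in the presence of compound overnight, then re-dosed and incubated 5 days at 37 °C. HBcAg immunofluorescence was imaged, with DAPI nuclei count taken as toxicity. Ten-point 1/3 dilutions gave % inhibition against 0.2% DMSO vehicle and 100 nM Myrcludex B, with dose-response curves fitted.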

The test system is the same in test [2]. The test is described as follows: iCell hepatocytes assay, delayed assay (compounds added three days after HBV infection). The class given is cell-based. The following applies: for EC50: Hepatitis B virus, Hepatocyte, HBs ELISA. The method, then:
The principle of the iCell hepatocyte 2.0 96 well assay is to evaluate the inhibitory effect of a test compound on hepatitis virus B (HBV) infection. In this assays the HBV core antigen (HBcAg) and/or extracellular antigen (HBeAg) and/or surface antigen (HBsAg) are used as a marker for HBV infection. Nuclei count may be used as an indication for compound toxicity.
In the standard assay set-up HBV infection and compound addition are performed on the same day, in the delayed assay the compounds are added three days after HBV infection. iCell hepatocytes 2.0 are human hepatocytes derived from induced pluripotent stem cells (iPSc) purchased from Cellular Dynamics international (CDI, R1027).
At day 0, iCell hepatocytes 2.0 (CDI, R1027) are thawed and seeded in collagen I coated 96well plates at 112 000c/well (100µL) in plating medium (RPMI supplemented with B27 supplement, 20 ng/mL recombinant human oncostatin M (OSM), 25µg/mL gentamicin, 0.1µM Dexamethasone and iCell medium supplement provided by CDI). Plates are incubated at 37°C, 5% CO2 and daily refreshed with plating medium for the following four days.
On day 5 and 6, plates are refreshed with 100µL maintenance medium (RPMI supplemented with B27 supplement, 25µg/mL gentamicin, 0.1µM Dexamethasone, and iCell medium supplement provided by CDI) and incubated at 37°C, 5% CO2 until the following day.
On day 7 (day of infection), the maintenance medium is removed from the assay plates and cells are infected with 50 µL of HBV mix (HBV virus, 4% PEG, 0% or 2% DMSO in maintenance medium). The assay plates were incubated overnight at 37°C, 5% CO2.
At day 1 post infection (day8), 50µL of HBV mix is removed from the assay plates and refreshed with 100 µL of maintenance medium. The assay plates are incubated at 37°C, 5% CO2 for three days.
At day 4 post infection (day 11) and day 7 post infection (day14), the supernatant is removed and 100 µL of compound series diluted 1/500 in maintenance medium is added to the assay plates (8 point serial dilution using 1/3 dilution steps in 100% DMSO or 8 point serial dilution using ¼ dilution steps, normalized for 0.2% DMSO. The assay plates were incubated at 37°C, 5% CO2 for three days.
At day 10 post infection (day 17), 100µL of supernatant is harvested and frozen to -20°C. The cells are fixed with 50 µL of 3.7% formaldehyde and incubated for 30 min at room temperature. After fixation, cells are washed four times with phosphate buffer saline (PBS) with the plate washer (Select 405, microplate washer, Biotek) and subjected to HBc staining. harvested supernatant is used for HBe and/or HBs ELISA.
The assay plates are blocked with blocking buffer (2% FBS, 3% BSA, 0.2% TritonX100 in PBS) for 1 h at room temperature.
After blocking, the assay plates are tapped manually and incubated with 50 µL diluted primary antibody (1/700 Rabbit-anti-HBc Ag, Dako, B0586 or 1/350 Rabbit-anti-HBc Ag, Invitrogen, PA516368) in blocking buffer and incubated for 90 min at room temperature.
After 4 washes of PBST (1XPBS + 0.05% Tween) with the plate washer, the assay plates are incubated with 100 µL of secondary antibody (Donkey-anti-rabbit Alexa 488, Lifetechnologies, A21206) 1/500 diluted in blocking buffer and incubated for 60 min at room temperature in the dark, then washed 4 times with PBST on the plate washer and incubated with 100µL of DAPI (Sigma D9542, stock 5mg/mL) 1/10000 diluted in PBS for 15-30 min at room temperature in the dark.
Finally, the assay plates are read out on a InCell Analyzer 2200 (GE Healthcare). […]
After blocking, 30 µL of sample and HBe Ag standard (recombinant hepatitis B virus E antigen protein, 4mg/mL, Abcam, ab91273) are added to the plate. The HBe Ag standard is 1/3 diluted in blocking buffer starting from 1.25µg/mL. A vehicle control is also included. The plate is incubated for 30 min at room temperature.
After sample incubation, the plates are washed 4 times with PBST on a platewasher followed by 2 washed of PBS. […]
On the technique in general: In an ELISA, binding on a coated surface is turned into a signal by an enzyme label.

Broadly, the IC50 is the midpoint of a concentration-inhibition curve. Broadly, the EC50 is the concentration that produces a half-maximal response. A high value points to lower potency in that assay.

Molecules are shown by their SMILES.

`COCCCOc1cc2c(cc1Cl)-c1c(cc(C(=O)O)c(=O)n1C1CC1)C(C1(C)COC1)O2` (stereo not drawn) [Compound 2, 9-chloro-1-cyclopropyl-8-(3-methoxypropoxy)-5-(3-methyloxetan-3-yl)-2-oxo-5H-chromeno[4,3-b]pyridine-3-carboxylic acid] registered an IC50 in test [1] of 0.001 to 1 nM. In test [2], the “Delayed assay HBs ELISA % inhibition” value is “++ (50-75%)” and the EC50 was 0.001 to 20 nM.

`COc1cc2c(cc1OC)-c1c(cc(C(=O)O)c(=O)n1C1CC1)C(C(C)C)O2` (stereo not drawn) [Compound 3, 1-cyclopropyl-5-isopropyl-8,9-dimethoxy-2-oxo-5H-chromeno[4,3-b]pyridine-3-carboxylic acid]: in test [1], the half-maximal inhibitory concentration (IC50) is 1 to 20 nM. For the same compound, in test [2], the “Delayed assay HBs ELISA % inhibition” value is recorded as “+++ (75-100%)” and the EC50 was above 50 nM.

Compound `COCCCOc1cc2c(cc1Cl)-c1c(cc(C(=O)O)c(=O)n1C1CC1)C(C(C)C)O2` (stereo not drawn) [Compound 4, 9-chloro-1-cyclopropyl-5-isopropyl-8-(3-methoxypropoxy) -2-oxo-5H-chromeno[4,3-b]pyridine-3-carboxylic acid] displayed an IC50 in test [1] of 0.001 to 1 nM. In test [2], the “Delayed assay HBs ELISA % inhibition” value is “++ (50-75%)” and the half-maximal effective concentration (EC50) lay within 0.001 to 20 nM.

As to `COCCCOc1cc2c(cc1Cl)-c1c(cc(C(=O)O)c(=O)n1C1CCC1)C(C(C)C)O2` (stereo not drawn) [Compound 17, 9-chloro-1-cyclobutyl-5-isopropyl-8-(3-methoxypropoxy) -2-oxo-5H-chromeno[4,3-b]pyridine-3-carboxylic acid], the half-maximal inhibitory concentration (IC50) in test [1] fell in the range of 0.001 to 1 nM. In addition, in test [2], the “Delayed assay HBs ELISA % inhibition” value is on record as “+++ (75-100%)” and the EC50 was in the range of 0.001 to 20 nM.

`COCCCOc1cc2c(cc1Cl)-c1c(cc(C(=O)O)c(=O)n1C1CC1)[C@@H](C1(C)COC1)O2` [Compound 47, (5S)-9-chloro-1-cyclopropyl-8-(3-methoxypropoxy)-5-(3-methyloxetan-3-yl)-2-oxo-5H-chromeno[4,3-b]pyridine-3-carboxylic acid] returned an IC50 in test [1] of 1 to 20 nM. In test [2], the “Delayed assay HBs ELISA % inhibition” value is given as “++ (50-75%)” and the EC50 was in the range of 22 to 50 nM.

For the compound `COCCCOc1cc2c(cc1Br)-c1c(cc(C(=O)O)c(=O)n1C1CC1)C(C(C)C)O2` (stereo not drawn) [Compound 71, 9-bromo-1-cyclopropyl-5-isopropyl-8-(3-methoxypropoxy) -2-oxo-5H-chromeno[4,3-b]pyridine-3-carboxylic acid], in test [1], the IC50 fell in the range of 0.001 to 1 nM.

`CC1(C2Oc3cc(OCC4CN(S(C)(=O)=O)C4)c(Cl)cc3-c3c2cc(C(=O)O)c(=O)n3C2CC2)COC1` (stereo not drawn) [Compound 72, 9-chloro-1-cyclopropyl-5-(3-methyloxetan-3-yl)-8-[(1-methylsulfonylazetidin-3-yl)methoxy]-2-oxo-5H-chromeno[4,3-b]pyridine-3-carboxylic acid]: the IC50 in test [1] lay in the range of 1 to 20 nM.

With `COc1cc2c(cc1OC)-c1c(cc(C(=O)O)c(=O)n1C1CC1)C(CSC)O2` (stereo not drawn) [Compound 74, 1-cyclopropyl-8,9-dimethoxy-5-(methylsulfanylmethyl)-2-oxo-5H-chromeno[4,3-b]pyridine-3-carboxylic acid], the concentration for half-maximal inhibition (IC50) in test [1] was above 100 nM.
